In the experiment the test system is LG0567-F671-PDC KRAS tumor spheroid viability. Nature of the experiment: Anticancer human tumor LG0567-F671-PDC patient-derived lung adenocarcinoma cell line growth inhibition [KRAS2]. Particulars: spheroids with HUVEC and MSC; for viability, T/C: stronger effect = lower value; for IC50: compound alone. In outline:
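Combination screen of spheroid viability in tumor-cell co-cultures with endothelial (HUVEC) and mesenchymal stem cell stroma. Each agent was tested in half-log dilutions, topping at clinical Cmax or at 10 microM without a known Cmax.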

Usually viability, T/C stands for the result in the treated group divided by that in the control group, in per cent. The IC50 is the point on the concentration scale where inhibition reaches its midpoint.
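Note: drug exposure lasted seven days after spheroids formed for three days.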
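Throughout, for viability, T/C: 100% = DMSO vehicle control viability.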

For the compound `C=CC(=O)N1CCN(c2nc(OCC3CCCN3C)nc3c2CCN(c2cccc4cccc(C)c24)C3)CC1CC#N` (stereo unspecified), the viability, T/C runs as follows: (compound 0.0316 µM) 35.5% [middle of 17 runs]; (compound 0.1 µM) 31.3% [middle of 16 runs]; (compound 1 µM) 30.4% [middle of 17 runs]. Moreover, the IC50 is, setting by setting: (run of 07/12/2021) < 31.6 nM; (run of 07/19/2021) < 31.6 nM; (run of 07/26/2021) < 31.6 nM.
